Measured values reported in EP1333824B1, “TREATMENT OF SEXUAL DYSFUNCTION WITH BOMBESIN RECEPTOR ANTAGONISTS” (Warner-Lambert Company LLC, priority 2000, dated 2002).

Assays:
[1] = target: T1, human NMB receptor (BB1) (Homo sapiens, UniProt P28336); assay: BB1 binding assay ([125I][Tyr4]bombesin, CHO-K1 cell membranes)
T1 construct: expressed in transfected cells
Protocol: In the following experiments, measurement of BB1 and BB2 binding was as follows. […] The final pellet was resuspended in assay buffer to a final cell concentration of 1.5 × 10^5/mL. […] Nonspecific binding was defined by 1µM bombesin. […] Radioactivity bound was determined using a gamma counter.
All competition data was analysed using nonlinear regression utilizing iterative curve-plotting procedures in Prism® (GraphPad Software Inc., San Diego, USA).

[2] = target: T2, human GRP receptor (BB2) (Homo sapiens, UniProt P30550); assay: BB2 binding assay ([125I][Tyr4]bombesin, CHO-K1 cell membranes)
T2 construct: expressed in transfected cells
T2 sequence (P30550 whole entry): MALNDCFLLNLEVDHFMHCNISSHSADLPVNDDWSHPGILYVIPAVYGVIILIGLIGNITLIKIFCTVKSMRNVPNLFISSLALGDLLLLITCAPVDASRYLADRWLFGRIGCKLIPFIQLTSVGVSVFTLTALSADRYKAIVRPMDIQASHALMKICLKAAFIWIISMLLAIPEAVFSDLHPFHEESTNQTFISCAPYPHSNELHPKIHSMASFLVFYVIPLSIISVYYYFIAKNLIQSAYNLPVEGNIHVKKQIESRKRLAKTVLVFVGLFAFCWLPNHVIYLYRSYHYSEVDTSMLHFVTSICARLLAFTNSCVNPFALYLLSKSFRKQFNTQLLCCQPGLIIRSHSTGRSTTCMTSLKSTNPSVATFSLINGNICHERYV
Summary of the method: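 Radioligand competition on CHO-K1 membranes at 1.5 × 10^5 cells/mL final, read by gamma counting. Nonspecific binding defined with 1 µM bombesin. Competition data fitted by nonlinear regression.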

[3] = tested on: Ovariectomised adult female Sprague Dawley rats; assay: Female rat sexual receptivity test (lordosis quotient, LQ); format: in vivo; settings: for lordosis quotient (LQ): quinelorane 6.25µg/kg s.c. 90min
Protocol: Ovariectomised adult female Sprague Dawley rats (180-200g, from Charles River) were housed in groups of 6 in a reversed lighting system of 12h light:dark (lights off 7.00-19.00h). Two weeks after ovariectomy they were used for sexual activity tests. The experiments started at least 5h into the dark period.
It was administered intraperitoneally (i.p.) at a dose of 10mg/kg, in a dosing volume of 1ml/kg. […] Forty eight hours before testing, ovariectomised female rats (as described above), were primed with 5µg oestradiol benzoate dissolved in corn oil and injected subcutaneously. […] The females were placed with a series of vigorous male rats and subjected to 10 mounts.
The lordotic response of the animal was recorded and expressed as a percentage of the mounts (i.e. lordosis quotient, LQ), as previously described. Animals showing LQ<20 were considered non-receptive and were included in the study. Each rat was tested prior to administration of the compound and then tested similarly post-injection.
The above compound was dissolved in PEG200 vehicle and administered orally. […] Both compounds were administered in a 1ml/kg volume.
Forty eight hours before tests, the animals were primed with 5µg oestradiol benzoate (Sigma Chemical. Co. Ltd., UK) dissolved in corn oil and injected subcutaneously. The females were placed with a series of vigorous male rats and subjected to 10 mounts. The lordotic response of the animal was recorded and expressed as a percentage of the mounts (i.e. lordosis quotient, LQ). […] Animals showing higher LQ were not included in the study. Each rat was tested prior to administration of the compound and then tested similarly at 1h and 90min post-injection of the above compound or quinelorane respectively.

[4] = tested on: Ovariectomised adult female Sprague Dawley rats; assay: Female rat sexual proceptivity test (time investigating male vs female stimulus); format: in vivo
[5] = tested on: conscious male rat; assay: Penile intracavernosal pressure in the conscious male rat (telemetry); format: in vivo
Protocol: In addition to treating women with FSD, bombesin antagonists will be useful in treating male erectile dysfunction (MED. Both the non-selective BB1/2 antagonists (Compound 1; 10mg/kg sc) and the selective BB1 receptor antagonist (Compound 3; 15mg/kg sc) is pro-erectile in a conscious rat model of penile erection (Figures 24 and 25). Erectile responses were recorded by measuring intracavernosal pressure using surgically implanted telemetric device. The specific details the surgical procedures, data acquisition and analysis can be found in detail in Bemabe 1999.
Compound 1 and compound 3 were dissolved in 50% β-cyclodextrin in saline. They were administered at a dose of 15mg/kg subcutaneously (sc). […] These increases equate to penile erection. Both Compounds 1 and 3 induced a number of erections in a similar manner to those observed with apomorphine or melanotan-II - both of which are clinically proven agents that are effective in the treatment of MED. Moreover the amplitude of the increases observed were similar to those observed with apomorphine or melanotan-II. The mechanism of action is thought to be similar to the effects on female genital flow ie CNS potentiation of the descending neuronal pathways that control penile erection.

[6] = tested on: Female New Zealand rabbits; assay: Pelvic nerve-stimulated female genital blood flow, anaesthetised rabbit model of sexual arousal; format: in vivo
Protocol: Female New Zealand rabbits (~2.5kg) were pre-medicated with a combination of Medetomidine (Domitor®) 0.5ml/kg i.m., and Ketamine (Vetalar®) 0.25ml/kg i.m. whilst maintaining oxygen intake via a face mask. The rabbits were tracheotomised using a Portex™ uncuffed endotracheal tube 3 ID., connected to ventilator and maintained at a ventilation rate of 30-40 breaths per minute, with an approximate tidal volume of 18-20 ml, and a maximum airway pressure of 10 cm H2O. Anaesthesia was then switched to Isoflurane and ventilation continued with O2 at 21/min. The right marginal ear vein was cannulated using a 23G or 24G catheter, and Lactated Ringer solution perfused at 0.5ml/min. The rabbit was maintained at 3% Isoflurane during invasive surgery, dropping to 2% for maintenance anaesthesia.
The left groin area of the rabbit was shaved and a vertical incision was made approximately 5cm in length along the thigh. The femoral vein and artery were exposed, isolated and then cannulated with a PVC catheter (17G) for the infusion of drugs and compounds. Cannulation was repeated for the femoral artery, inserting the catheter to a depth of 10cm to ensure that the catheter reached the abdominal aorta. This arterial catheter was linked to a Gould system to record blood pressure. Samples for blood gas analysis were also taken via the arterial catheter. Systolic and diastolic pressures were measured, and the mean arterial pressure calculated using the formula (diastolic x2 + systolic) ö3. Heart rate was measured via the pulse oxymeter and Po-ne-mah data acquisition software system (Ponemah Physiology Platform, Gould Instrument Systems Inc). A ventral midline incision was made into the abdominal cavity. The incision was about 5cm in length just above the pubis. The fat and muscle was bluntly dissected away to reveal the hypogastric nerve which runs down the body cavity. It was essential to keep close to the side curve of the pubis wall in order to avoid damaging the femoral vein and artery which lie above the pubis. The sciatic and pelvic nerves lie deeper and were located after further dissection on the dorsal side of the rabbit. Once the sciatic nerve is identified, the pelvic nerve was easily located. The term pelvic nerve is loosely applied; anatomy books on the subject fail to identify the nerves in sufficient detail. However, stimulation of the nerve causes an increase in vaginal and clitoral blood flow, and innervation of the pelvic region. The pelvic nerve was freed away from surrounding tissue and a Harvard bipolar stimulating electrode was placed around the nerve. […] A frequency response curve was determined at the start of each experiment in order to determine the optimum frequency to use as a sub-maximal response, normally 4Hz. […]

[7] = Example 31, after vs before administration, Compound (2) oral 10-100mg/kg in PEG200, 1h
[8] = Table 7, N-terminal sulfonamide derivatives

T1 sequence (P28336 whole entry): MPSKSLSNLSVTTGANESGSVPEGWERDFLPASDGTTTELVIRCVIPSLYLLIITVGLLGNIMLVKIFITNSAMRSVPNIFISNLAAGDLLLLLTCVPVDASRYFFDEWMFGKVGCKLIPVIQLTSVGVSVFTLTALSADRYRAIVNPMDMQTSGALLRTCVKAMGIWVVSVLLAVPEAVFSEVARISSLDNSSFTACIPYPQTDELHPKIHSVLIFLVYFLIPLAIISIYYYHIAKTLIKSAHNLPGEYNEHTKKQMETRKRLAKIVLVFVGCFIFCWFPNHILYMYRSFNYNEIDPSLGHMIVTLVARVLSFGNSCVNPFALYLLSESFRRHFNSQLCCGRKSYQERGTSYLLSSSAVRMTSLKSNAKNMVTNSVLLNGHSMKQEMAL

CN(C)c1cccc(C(=O)N[C@@](C)(Cc2c[nH]c3ccccc23)C(=O)NCC2(c3ccccn3)CCCCC2)c1 [Example 42, Dimethylamino-N-{(S)-2-(1H-indol-3-yl)-1-methyl-1-[(1-pyridin-2-yl-cyclohexyl-methyl)-carbamoyl]-ethyl}-benzamide]
IC50 ([1]; Table 3, N-acyl derivatives): 2520 nM | IC50 ([2]; Table 3, N-acyl derivatives): > 10000 nM

C[C@@](Cc1c[nH]c2ccccc12)(NC(=O)c1ccccc1)C(=O)NCC1(c2ccccn2)CCCCC1 [Example 32, N-{(S)-2-(1H-Indol-3-yl)-1-methyl-1-[(1-pyridin-2-yl-cyclohexylmethyl)-carbamoyl]-ethyl}-benzamide]
IC50 ([1]; Table 3, N-acyl derivatives): 2500 nM

CCCN1CCC[C@@H]2Cc3nc(N)ncc3C[C@H]21 [quinelorane, reference compound]
lordosis quotient (LQ) ([3]; Example 2, after vs before administration (paired t test), Compound (1) 10mg/kg i.p. 1h): significantly (P<0.01) increased the LQ | lordosis quotient (LQ) [3, 7]: significantly (P<0.01) increased the LQ

Cc1ccc(C(=O)N[C@@](C)(Cc2c[nH]c3ccccc23)C(=O)NCC2(c3ccccn3)CCCCC2)cc1 [Example 33, N-{(S)-2-(1H-Indol-3-yl)-1-methyl-1-[(1-pyridin-2-yl-cyclohexylmethyl)-carbamoyl]-ethyl}-4-methyl-benzamide]
IC50 ([1]; Table 3, N-acyl derivatives): 2500 nM

(S)-3-(1H-Indol-3-yl)-2-methyl-2-(nitro-trifluoromethyl-benzenesulfonylamino)-N-(1-pyridin-2-yl-cyclohexylmethyl)-propionamide [Example 167]
IC50 [1, 8]: 758 nM | IC50 [2, 8]: > 10000 nM

COc1ccc(C2(CNC(=O)[C@](C)(Cc3c[nH]c4ccccc34)Nc3nc(-c4ccc([N+](=O)[O-])cc4)co3)CCCCC2)nc1 [Example 9, (S)-3-(1H-Indol-3-yl)-N-[1-(5-methoxy-pyridin-2-yl)-cyclohexylmethyl]-2-methyl-2-[4-(4-nitro-phenyl)-oxazol-2-ylamino]-propionamide]
lordosis quotient (LQ) [3, 7]: increased the LQ | minimal effective dose ([3]; Rattus norvegicus, Example 31, single oral administration in PEG200, 1h after administration, P<0.01, read-out: MED (increase in LQ)): 100 mg/kg | MED (increase in percentage of time spent investigating the male stimulus) ([4]; Example 29, oral, 30-100mg/kg in PEG 200 vehicle, 1h before test): 100 mg/kg | percentage of time spent investigating the male stimulus ([4]; Example 29, oral, dose-dependent 30-100mg/kg in PEG 200, 1h before test): increased the percentage of time spent investigating the male stimulus | increase in potency compared to the oral results obtained in the PEG200 vehicle ([4]; Example 30, methyl cellulose MED vs PEG200 MED): 10 fold | MED (increase in percentage of time spent investigating the male stimulus) ([4]; Example 30, p.o., 3-30mg/kg in 0.5% methyl cellulose, 1h before tests): 10 mg/kg | percentage of time spent investigating the male stimulus ([4]; Example 30, p.o., dose-dependent 3-30mg/kg in 0.5% methyl cellulose): increased the percentage of time spent investigating the male stimulus

C[C@@](Cc1c[nH]c2ccccc12)(NC(=O)Nc1ccc([N+](=O)[O-])cc1)C(=O)NCC1(c2ccc(N)cc2)CCCCC1 [Compound 3, (2S)-N-{[1-(4-aminophenyl)cyclohexyl]methyl}-3-(1H-indol-3-yl)-2-methyl-2-{[(4-nitroanilino)-carbonyl]amino}propanamide]
erectile response (penile erection) ([5]; Compound 1 10mg/kg sc, Compound 3 15mg/kg sc): pro-erectile | intracavernosal pressure ([5]; one hour after 10mg/kg sc Compound 1, 45 minutes after 15mg/kg sc compound 3): significant increases in intracavernosal pressure | basal genital blood flow in the absence of PNS ([6]; 15mg/kg sc): no effect | pelvic-nerve stimulated (PNS) increases in genital (vaginal and clitoral) blood flow ([6]; 15mg/kg sc in 50% β-cyclodextrin in saline): potent enhancer
